# Results: patent US12416002B2, “Analysis system for orthogonal access to and tagging of biomolecules in cellular compartments” (ILLUMINA, INC., priority 2016, dated 2025)
# Experiments:
# Isolated nuclei [1] = assay: qPCR (Cq) of library yield, varying Pitstop-2 with Tn5 and TsTn5 transposases (Table 1B); type: cell-based, human
# Text: (§1) One Cq value roughly corresponds to two fold difference in DNA Input. […]
# Additional experiments were run using varying concentrations of Pitstop-2 and the Tn5 and TsTn5 transposases.
# nuclei of K562 cells = assay: Reverse transcription/quantitative PCR of cDNA synthesis from nuclear mRNA (Example 9, Table 4); type: cell-based, human
# Procedure: Pitstop-2 treatment increases RNA output by improving cDNA synthesis from nuclear mRNA. K562 cells were lysed with 0.1% NP40. The nuclei and cytoplasm were separated and the nuclei were washed twice, then a reverse transcription/quantitative PCR protocol was performed (ThermoFisher Maxima HT RT kit, Kapa qPCR kit, RPLPO PCR primer) with (a) no additive, (b) 0.1% SDS, or (c) 30 μM Pitstop-2. The deltaCt between no reverse transcription and reverse transcription was used as the metric to report relative cDNA synthesis efficiency. Pitstop-2 treatment boosted cDNA synthesis from nuclei 4-5 fold over untreated nuclei (Table 4).
# Isolated nuclei [2] = assay: qPCR (Cq) of library yield from nuclei transposed with Nextera Tn5 in presence of Pitstop-2 (Example 4, Table 1A); type: cell-based, human; settings: for Cq-Pitstop-2: 50,000 nuclei, 25 cy qPCR
# Procedure: Using a standard cell culture protocol, 1×10^6 K562 cells (human lymphoma cell line) were collected from tissue culture flasks for tagmentation reaction. All cell pelleting/centrifugation steps were performed at 300×g for 3 min at 4° C. Freshly isolated cells were centrifuged and re-suspended in ice cold PBS (phosphate-buffered saline). The cells were pelleted again and incubated on ice while being suspended in 200 μL ice cold cell lysis buffer (Tris/NaCl/octylphenoxypolyethoxyethanol (IGEPAL CA-630 detergent)) for 5 min. Following this, nuclei were spun down for 3 min at 300×g, washed once with 200 of lysis buffer, and pelleted nuclei were transposed with Nextera Tn5 Transposase (TDE1) for 30 min at 55° C. in 1× Tagment DNA buffer (PN:15027866), supplemented with ([…]) or ([…]). Nuclei from each sample were pelleted and most of the supernatant was carefully removed.
# as §1
# nuclei [3] = assay: Agarose gel of indexed, amplified libraries of transposed nuclear DNA (Example 6, FIG. 5); type: cell-based; settings: Pitstop-2 0, 10, 30, 60 μM
# Procedure: Genomic DNA transposed with Nextera Tn5 Kit in the presence of Pitstop-2 (at concentrations of 0, 10, 30, and 60 μM) as described above was released from nuclei and was captured onto indexed beads containing oligonucleotide capture sequences. Bead-captured DNA was further gap-fill ligated to covalently link both strands of genomic DNA to common sequences (including unique indices) and amplified by PCR. […] Band intensity increases correlated with increases in Pitsthop-2 concentration. Corresponding DNA fragments covered by distinct number of nucleosomes of resulted libraries contained “nucleosomal banding,” indicating successful ATAC-seq tagmentation at regions free of nucleosomes.
# [4] = tested on: K562 (human lymphoma cell line) nuclear content; assay: Sequencing of transposition (ATAC-seq) libraries from K562 nuclear content (Example 5, FIG. 4); type: cell-based
# Text: DNA libraries were generated from K562 (human lymphoma cell line) nuclear content using methods as described in the preceding examples. […] As shown in FIG. 4A for the ATAC-seq profile over a portion of Chr 12, the libraries had targeted predominantly intergenic regions at all Pitstop-2 concentrations.
# unpurified nuclei = assay: Yield of ATAC-seq library from unpurified nuclei (Example 8, Table 3); type: cell-based; settings: for Yield (nM) 150-1000 bp: 3% DMSO
# Procedure: The concentration of each library was determined on the BioAnalyzer between the library range of 150-1000 bps plotted for each Pitstop-2 concentration (FIG. 7A). Additional experiments run at varying Pitstop-2 concentrations (5, 10, 30, 50, 100, and 200 μM) produced enhanced library yield over libraries produced in the absence of Pitstop-2 as shown by spectrophotometric analysis (Table 3).
# [5] = tested on: Isolated nuclei of K562 cells; assay: Visualization of FAM-labeled transposome access to nuclei (Example 3, FIG. 3); type: cell-based, human; settings: Pitstop-2 10 μM, 30 μM, 60 μM vs 2% DMSO control
# Procedure: Using a standard cell culture protocol, 1×10^6 K562 cells (human lymphoma cell line) were collected from tissue culture flasks for tagmentation reaction. All cell pelleting/centrifugation steps were performed at 300×g for 3 min at 4° C. Freshly isolated cells were centrifuged and re-suspended in ice cold PBS (phosphate-buffered saline). The cells were pelleted again and incubated on ice while being suspended in 200 μL ice cold cell lysis buffer (Tris/NaCl/octylphenoxypolyethoxyethanol (IGEPAL CA-630 detergent)) for 5 min. Following this, nuclei were spun down for 3 min at 300×g, washed once with 200 of lysis buffer, and pelleted nuclei were transposed with Nextera Tn5 Transposase (TDE1) for 30 min at 55° C. in 1× Tagment DNA buffer (PN:15027866), supplemented with (a) Pitstop-2 in DMSO to yield 30 μM final Pitstop-2 concentration (test nuclei) or (b) 2% DMSO (control nuclei). Nuclei from each sample were pelleted and most of the supernatant was carefully removed.
# The method of Example 1 was used to import FAM-labeled transposome complexes into nuclear compartments. Nuclei were isolated and treated as described in Example 1 using Nextera Tn5 transposase complexed with transposon sequence labeled during oligonucleotide synthesis at the 5′-end with FAM (6-FAM, Integrated DNA Technologies), and using the 2% DMSO control, and varying concentrations of Pitstop-2 (10 μM, 30 μM, and 60 μM).
# Mouse (3T3) nuclei = assay: Single-cell ATAC-seq in droplets (Example 14, FIG. 11); type: cell-based
# Procedure: Mouse (3T3) nuclei were treated with 0 μM, 30 μM, and 60 μM Pitstop-2 during cell lysis and transposition of nuclei. Pitstop-2 was used to open up nuclear pores and to allow increased transposition of open chromatin. A defined number of transposed nuclei set to ensure single nuclei occupancy was loaded into a QX200 Bio-Rad droplet generator with indexed beads designed to produce single-cell ATAC-seq libraries. Single cell libraries were PCR-amplified in droplets and then subjected to purification, and sequencing on a NextSeq® 550 Sequencing System.
# Treatment of nuclei with Pitstop-2 allows more efficient transposition and increased unique coverage of open chromatin. In the presence of Pitstop-2, transposases target additional open chromatin regions outside of transcription start sites (TSS) (see FIG. 11B). […] Also observed were an alignment of pooled ATAC-seq reads generated with 0 μM, 30 μM, and 60 μM Pitstop-2 around GAPDH gene at chromosome 6 and an alignment of pooled ATAC-seq reads generated with 0 μM, 30 μM, and 60 μM Pitstop-2 around RPL10 gene at chromosome X (data not shown).
# nuclei [6] = assay: Flow cytometry of bead capture of FAM-labeled transposed nuclear material (Table 2); type: cell-based
smiles,measurement,setting,value
"O=C1N=C(NS(=O)(=O)c2cccc3ccccc23)SC1=Cc1ccc(Br)cc1 [Pitstop-2, N-[5-(4-bromobenzylidene)-4-oxo-4,5-dihydro-1,3-thiazol-2-yl]naphthalene-1-sulfonamide]",Cq,"Isolated nuclei [1]; Transposome Tn5, Pitstop 50 μM",22.21
same,Cq,"Isolated nuclei [1]; Transposome Tn5, Pitstop 100 μM",23.17
same,Cq,"Isolated nuclei [1]; Transposome Tn5, Pitstop 200 μM",23.105
same,Cq,"Isolated nuclei [1]; Transposome Tn5, Pitstop 300 μM",23.67
same,Cq,"Isolated nuclei [1]; Transposome TsTn5, Pitstop 50 μM",18.32
same,Cq,"Isolated nuclei [1]; Transposome TsTn5, Pitstop 100 μM",18.52
same,Cq,"Isolated nuclei [1]; Transposome TsTn5, Pitstop 200 μM",18.55
same,Cq,"Isolated nuclei [1]; Transposome TsTn5, Pitstop 300 μM",19.475
same,boost of cDNA synthesis from nuclei over untreated nuclei,nuclei of K562 cells; 30 μM Pitstop-2,4-5 fold
same,DeltaCt (no reverse transcription vs reverse transcription; relative cDNA synthesis efficiency),nuclei of K562 cells; Nuclei +30 μM Pitstop-2,7.19
same,library yield from intact nuclei vs untreated control,Isolated nuclei [2]; Pitstop-2 0 to 80 uM,increases library yield compared to the untreated control
same,ΔCq-Pitstop-2 vs. Control,Isolated nuclei [2]; Pitstop-2 5 uM vs 0.05% DMSO control,−0.2
same,Cq-Pitstop-2,Isolated nuclei [2]; Pitstop-2 5 uM,19.91
same,ΔCq-Pitstop-2 vs. Control,Isolated nuclei [2]; Pitstop-2 10 uM vs 0.10% DMSO control,−0.65
same,Cq-Pitstop-2,Isolated nuclei [2]; Pitstop-2 10 uM,20.00
same,ΔCq-Pitstop-2 vs. Control,Isolated nuclei [2]; Pitstop-2 20 uM vs 0.20% DMSO control,−1.48
same,Cq-Pitstop-2,Isolated nuclei [2]; Pitstop-2 20 uM,19.36
same,ΔCq-Pitstop-2 vs. Control,Isolated nuclei [2]; Pitstop-2 40 uM vs 0.40% DMSO control,−1.26
same,Cq-Pitstop-2,Isolated nuclei [2]; Pitstop-2 40 uM,19.94
same,ΔCq-Pitstop-2 vs. Control,Isolated nuclei [2]; Pitstop-2 80 uM vs 0.80% DMSO control,−2.06
same,Cq-Pitstop-2,Isolated nuclei [2]; Pitstop-2 80 uM,19.24
same,transposition yield by agarose gel electrophoresis,nuclei [3],clear increase in transposition yield
same,"ATAC-seq profile, normalized coverage over promoter and coding regions","[4]; 30 and 60 μM Pitstop-2, FIG. 4C",improved the ATAC-seq profile over controls
same,diversity and uniqueness of whole genome sequencing coverage,"[4]; Pitstop-2-treated samples over controls, FIG. 4B",better diversity and uniqueness
same,access to chromatin regions (sequenced libraries),[4]; Pitstop-2 treatment,enhanced access to transposase-accessible intergenic and open chromatin regions
same,Yield (nM) 150-1000 bp,unpurified nuclei; Pitstop-2 5 μM,7.3 nM
same,Yield (nM) 150-1000 bp,unpurified nuclei; Pitstop-2 10 μM,9.3 nM
same,Yield (nM) 150-1000 bp,unpurified nuclei; Pitstop-2 20 μM,20.6 nM
same,Yield (nM) 150-1000 bp,unpurified nuclei; Pitstop-2 50 μM,23.7 nM
same,Yield (nM) 150-1000 bp,unpurified nuclei; Pitstop-2 100 μM,15.7 nM
same,Yield (nM) 150-1000 bp,unpurified nuclei; Pitstop-2 200 μM,8.7 nM
same,yield of ATAC-seq library on BioAnalyzer,"unpurified nuclei; Pitstop-2 10 and 100 μM, FIG. 7A",increased the yield of an ATAC-seq library
same,influx of FAM-labeled transposomes into nuclei,[5],increased influx of FAM-labeled transposomes into the nuclear space
same,"ATAC-seq peak overlap (MACS-2), integrity of the assay","Mouse (3T3) nuclei; 0, 30, 60 μM Pitstop-2, FIG. 11C",did not change the overall integrity of the assay
same,total number of unique reads,"Mouse (3T3) nuclei; increasing Pitstop-2 (0, 30, 60 μM), barcodes >1 k, >10 k, >100 k unique reads, FIG. 11A",increase in the total number of unique reads
same,"Mean (MFU), bead capture",nuclei [6]; Pitstop-2 10 μM,1297 MFU
same,"Mean (MFU), bead capture",nuclei [6]; Pitstop-2 30 μM,1439 MFU
same,"Mean (MFU), bead capture",nuclei [6]; Pitstop-2 60 μM,1488 MFU
same,bead capture rates of FAM-labeled transposed libraries,nuclei [6]; Pitstop-2 treatment vs control pools,enhanced bead capture rates over control pools
"CCCCCCCCCCCCOS(=O)(=O)[O-].[Na+] [SDS, sodium dodecyl sulfate]",DeltaCt (no reverse transcription vs reverse transcription; relative cDNA synthesis efficiency),nuclei of K562 cells; Nuclei +0.1% SDS,2.47
